One assay has as its target GSK3α (Homo sapiens (Human), UniProt P49840). Description: GSK 3α enzyme inhibition (FRET, Z-LYTE; Method 2). Type of assay: biochemical. As for the experimental part:
The enzyme inhibitory activities of compounds disclosed herein are determined by FRET using synthetic peptides labelled with both donor and acceptor fluorophores (Z-LYTE, Invitrogen Ltd., Paisley, UK).
The inhibitory activities of compounds of the invention against the GSK 3α enzyme isoform (Invitrogen), are evaluated by determining the level of activation/phosphorylation of the target peptide. The GSK3-α protein (500 ng/mL, 2.5 μL) is mixed with the test compound (2.5 μL at either 4 μg/mL, 0.4 μg/mL, 0.04 μg/mL, or 0.004 μg/mL) for 2 hr at RT. The FRET peptide (8 μM, 2.5 μL), which is a phosphorylation target for GSK3α, and ATP (40 μM, 2.5 μL) are then added to the enzyme/compound mixture and the resulting mixture incubated for 1 hr. Development reagent (protease, 5 μL) is added for 1 hr prior to detection in a fluorescence microplate reader (Varioskan® Flash, ThermoFisher Scientific).
In all cases, the site-specific protease cleaves non-phosphorylated peptide only and eliminates the FRET signal. Phosphorylation levels of each reaction are calculated using the ratio of coumarin emission (donor) over fluorescein emission (acceptor), for which high ratios indicate high phosphorylation and low ratios indicate low phosphorylation levels. The percentage inhibition of each reaction is calculated relative to non-inhibited control and the 50% inhibitory concentration (IC50 value) is then calculated from the concentration-response curve.
This method follows the same steps as Method 1 above, but utilises a shorter period of mixing of the test compound (105 minutes instead of 2 hours) with the GSK3-α protein.

In another assay the test system is PBMCs. Briefly: LPS-induced TNFα/IL-8 release in PBMC cells. The conditions noted are these: Homo sapiens, LPS-stimulated PBMCs. Type of assay: cell-based. As for the experimental part:
Peripheral blood mononuclear cells (PBMCs) from healthy subjects are separated from whole blood using a density gradient (Lymphoprep, Axis-Shield Healthcare). The PBMCs are seeded in 96 well plates and treated with compounds at the desired concentration for 2 hours before addition of 1 ng/mL LPS (Escherichia Coli 0111:B4 from Sigma Aldrich) for 24 hours under normal tissue culture conditions (37° C., 5% CO2). The supernatant is harvested for determination of IL-8 and TNFα concentrations by sandwich ELISA (Duo-set, R&D systems) and read on the fluorescence microplate reader (Varioskan® Flash, ThermoFisher Scientific). The concentration at 50% inhibition (IC50) of IL-8 and TNFα production is calculated from the dose response curve.

The mark [1] stands for this setting: IL-8, read-out: IC50 Values for Inhibition of Cytokine Release, PBMCs IL-8.
The mark [2] stands for this setting: TNFα, read-out: IC50 Values for Inhibition of Cytokine Release, PBMCs TNFα.

Where two headings read alike, the source gives them in different places.

Chain of GSK3α (P49840 whole entry): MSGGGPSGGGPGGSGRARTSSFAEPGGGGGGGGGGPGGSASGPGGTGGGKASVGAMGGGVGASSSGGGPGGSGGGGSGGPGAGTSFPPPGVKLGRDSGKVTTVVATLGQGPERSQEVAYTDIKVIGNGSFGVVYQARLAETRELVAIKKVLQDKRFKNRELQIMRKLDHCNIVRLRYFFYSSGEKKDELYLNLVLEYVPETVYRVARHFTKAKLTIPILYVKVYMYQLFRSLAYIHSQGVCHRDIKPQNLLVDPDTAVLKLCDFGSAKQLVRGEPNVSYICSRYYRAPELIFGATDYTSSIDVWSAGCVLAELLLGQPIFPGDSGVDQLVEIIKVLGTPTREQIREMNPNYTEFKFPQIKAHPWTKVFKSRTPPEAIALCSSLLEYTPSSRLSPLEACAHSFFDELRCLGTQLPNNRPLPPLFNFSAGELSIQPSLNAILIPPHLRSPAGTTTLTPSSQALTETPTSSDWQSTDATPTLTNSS

With `CC(C)(C)c1cc(NC(=O)Nc2ccc(Oc3ccnc(Nc4ccc5[nH]ncc5c4)n3)c3ccccc23)n(-c2ccc(P(C)(C)=O)cc2)n1` [Example 7, 1-(4-((2-((1H-Indazol-5-yl)amino)pyrimidin-4-yl)oxy)naphthalen-1-yl)-3-(3-(tert-butyl)-1-(4-(dimethylphosphoryl)phenyl)-1H-pyrazol-5-yl)urea], the values for the IC50 on GSK3α, with PBMCs (setting [1]) and in the assay with PBMCs (setting [2]) were 0.486 µM, 0.0067 µM and 0.0025 µM, respectively.

Consider `COCCOCCOCCOCCOCCOc1cc(Nc2nccc(Oc3ccc(NC(=O)Nc4cc(C(C)C)nn4-c4cccc(CP(C)(C)=O)c4)c4ccccc34)n2)cc(OC)c1` [Example 55, 1-(4-((2-((3-(2,5,8,11,14-Pentaoxahexadecan-16-yloxy)-5-methoxyphenyl)amino)-pyrimidin-4-yl)oxy)naphthalen-1-yl)-3-(1-(3-((dimethylphosphoryl)methyl)phenyl)-3-isopropyl-1H-pyrazol-5-yl)urea], for which the IC50 (commonly the midpoint of a concentration-inhibition curve) was found to be 1.67 µM at GSK3α and 0.0054 µM in the assay on PBMCs (setting [1]).

Regarding `C#Cc1cc(Nc2nccc(Oc3ccc(NC(=O)Nc4cc(C(C)C)nn4-c4cccc(CP(C)(C)=O)c4)c4ccccc34)n2)cc(OCCN2CCOCC2)c1` [Example 56, 1-(1-(3-((Dimethylphosphoryl)methyl)phenyl)-3-isopropyl-1H-pyrazol-5-yl)-3-(4-((2-((3-ethynyl-5-(2-morpholinoethoxy)phenyl)amino)pyrimidin-4-yl)oxy)naphthalen-1-yl)urea], the IC50 against GSK3α came out at 0.788 µM; in the assay with PBMCs (setting [1]), 0.0017 µM.

In the case of `C#Cc1cc(Nc2nccc(Oc3ccc(NC(=O)Nc4cc(C(C)C)nn4-c4cccc(CP(C)(C)=O)c4)c4ccccc34)n2)cc(C(=O)NCCN2CCOCC2)c1` [Example 43, 3-((4-((4-(3-(1-(3-((Dimethylphosphoryl)methyl)phenyl)-3-isopropyl-1H-pyrazol-5-yl)ureido)naphthalen-1-yl)oxy)pyrimidin-2-yl)amino)-5-ethynyl-N-(2-morpholinoethyl)benzamide], the results for the IC50 against GSK3α and in the assay on PBMCs (setting [1]) were 0.174 µM and 0.0016 µM, respectively.

Take `COc1ccccc1Nc1nccc(Oc2ccc(NC(=O)Nc3cc(C(C)C)nn3-c3cccc(CP(C)(C)=O)c3)c3ccccc23)n1` [Example 40, 1-(1-(3-((dimethylphosphoryl)methyl)phenyl)-3-isopropyl-1H-pyrazol-5-yl)-3-(4-((2-((2-methoxyphenyl)amino)pyrimidin-4-yl)oxy)naphthalen-1-yl)urea]: the results for the IC50 on GSK3α and in the assay with PBMCs (setting [1]) were 8.92 µM and 0.104 µM, respectively.

For `CC(C)(C)c1cc(NC(=O)Nc2ccc(Oc3ccnc(N4CCC[C@@H]4CO)n3)c3ccccc23)n(-c2ccc(P(C)(C)=O)cc2)n1` [Example 27, (R)-1-(3-(tert-Butyl)-1-(4-(dimethylphosphoryl)phenyl)-1H-pyrazol-5-yl)-3-(4-((2-(2-(hydroxymethyl)pyrrolidin-1-yl)pyrimidin-4-yl)oxy)naphthalen-1-yl)urea], the IC50 against GSK3α turned out to be 0.979 µM; in the assay on PBMCs (setting [1]), 0.209 µM.

As for `CC(C)(C)c1cc(NC(=O)Nc2ccc(Oc3ccnc(NCCCO)n3)c3ccccc23)n(-c2ccc(P(C)(C)=O)cc2)n1` [Example 31, 1-(3-(tert-Butyl)-1-(4-(dimethylphosphoryl)phenyl)-1H-pyrazol-5-yl)-3-(4-((2-((3-hydroxy-propyl)amino)pyrimidin-4-yl)oxy)naphthalen-1-yl)urea], the IC50 on GSK3α was determined as 0.211 µM; in the assay with PBMCs (setting [1]), 0.0902 µM.

For `C[Si](C)(C)c1cc(NC(=O)Nc2ccc(Oc3ccnc(Nc4ccccc4)n3)c3ccccc23)n(-c2ccc(P(C)(C)=O)cc2)n1` [Example 5, 1-(1-(4-(Dimethylphosphoryl)phenyl)-3-(trimethylsilyl)-1H-pyrazol-5-yl)-3-(4-((2-(phenyl-amino)pyrimidin-4-yl)oxy)naphthalen-1-yl)urea], the values for the IC50 against GSK3α, in the assay on PBMCs (setting [1]) and in the assay on PBMCs (setting [2]) were 0.429 µM, 0.0163 µM and 0.0043 µM, respectively.

As for `CC(C)(C)c1cc(NC(=O)Nc2ccc(Oc3ccnc(Nc4ccc(SCCO)cc4)n3)c3ccccc23)n(-c2ccc(P(C)(C)=O)cc2)n1` [Example 18, 1-(3-(tert-Butyl)-1-(4-(dimethylphosphoryl)phenyl)-1H-pyrazol-5-yl)-3-(4-((2-((4-((2-hydroxyethyl)thio)phenyl)amino)pyrimidin-4-yl)oxy)naphthalen-1-yl)urea], the IC50 against GSK3α amounted to 0.168 µM; in the assay with PBMCs (setting [1]), 0.0072 µM; in the assay with PBMCs (setting [2]), 0.0029 µM.

On to `CC(C)(C)c1cc(NC(=O)Nc2ccc(Oc3ccnc(Nc4ccc5[nH]ncc5c4)n3)c3ccccc23)n(-c2cccc(P(C)(C)=O)c2)n1` [Example 10, 1-(4-((2-((1H-Indazol-5-yl)amino)pyrimidin-4-yl)oxy)naphthalen-1-yl)-3-(3-(tert-butyl)-1-(3-(dimethylphosphoryl)phenyl)-1H-pyrazol-5-yl)urea], for which the IC50 against GSK3α came out at 0.684 µM; in the assay with PBMCs (setting [1]) it was 0.0137 µM; with PBMCs (setting [2]) it was 0.004 µM.

`CC(C)(C)c1cc(NC(=O)Nc2ccc(Oc3ccnc(Nc4cccc(C(=O)NCCN5CCOCC5)c4)n3)c3ccccc23)n(-c2ccc(P(C)(C)=O)cc2)n1` [Example 24, 3-((4-((4-(3-(3-(tert-Butyl)-1-(4-(dimethylphosphoryl)phenyl)-1H-pyrazol-5-yl)ureido)-naphthalen-1-yl)oxy)pyrimidin-2-yl)amino)-N-(2-morpholinoethyl)benzamide]: the figures for the IC50 against GSK3α and with PBMCs (setting [1]) were 0.293 µM and 0.0263 µM, respectively.

Regarding `CC(C)(C)c1cc(NC(=O)Nc2ccc(Oc3ccnc(Nc4ccccc4)n3)c3ccccc23)n(-c2ccc(P3(=O)CCCC3)cc2)n1` [Example 8, 1-(3-(tert-Butyl)-1-(4-(1-oxidophospholan-1-yl)phenyl)-1H-pyrazol-5-yl)-3-(4-((2-(phenylamino)pyrimidin-4-yl)oxy)naphthalen-1-yl)urea], the figures for the half-maximal inhibitory concentration (IC50) on GSK3α, with PBMCs (setting [1]) and in the assay with PBMCs (setting [2]) were 0.849 µM, 0.0172 µM and 0.0048 µM, respectively.

With `CC(C)(C)c1cc(NC(=O)Nc2ccc(Oc3ccnc(N4CCC[C@H]4CO)n3)c3ccccc23)n(-c2ccc(P(C)(C)=O)cc2)n1` [Example 26, (S)-1-(3-(tert-Butyl)-1-(4-(dimethylphosphoryl)phenyl)-1H-pyrazol-5-yl)-3-(4-((2-(2-(hydroxymethyl)pyrrolidin-1-yl)pyrimidin-4-yl)oxy)naphthalen-1-yl)urea], the IC50 against GSK3α amounted to 8.13 µM; with PBMCs (setting [1]) it was 0.189 µM.

With `CC(C)(C)c1cc(NC(=O)Nc2ccc(Oc3ccnc(Nc4ccccc4)n3)c3ccccc23)n(-c2ccc(CP(C)(C)=O)cc2)n1` [Example 6, 1-(3-(tert-Butyl)-1-(4-((dimethylphosphoryl)methyl)phenyl)-1H-pyrazol-5-yl)-3-(4-((2-(phenylamino)pyrimidin-4-yl)oxy)naphthalen-1-yl)urea], the results for the IC50 against GSK3α, in the assay on PBMCs (setting [1]) and in the assay with PBMCs (setting [2]) were 0.183 µM, 0.0064 µM and 0.0025 µM, respectively.

As for `CC(C)(C)c1cc(NC(=O)Nc2ccc(Oc3ccnc(Nc4cccc(C(=O)NCCN5CCOCC5)c4)n3)c3ccccc23)n(-c2cccc(P(C)(C)=O)c2)n1` [Example 16, 3-((4-((4-(3-(3-(tert-Butyl)-1-(3-(dimethylphosphoryl)phenyl)-1H-pyrazol-5-yl)ureido)-naphthalen-1-yl)oxy)pyrimidin-2-yl)amino)-N-(2-morpholinoethyl)benzamide], the results for the IC50 on GSK3α, with PBMCs (setting [1]) and in the assay with PBMCs (setting [2]) were 0.072 µM, 0.0083 µM and 0.0043 µM, respectively.

With `COc1cc(Nc2nccc(Oc3ccc(NC(=O)Nc4cc(C(C)C)nn4-c4cccc(CP(C)(C)=O)c4)c4ccccc34)n2)cc(S(=O)(=O)C2CC2)c1` [Example 46, 1-(4-((2-((3-(Cyclopropylsulfonyl)-5-methoxyphenyl)amino)pyrimidin-4-yl)oxy)naphthalen-1-yl)-3-(1-(3-((dimethylphosphoryl)methyl)phenyl)-3-isopropyl-1H-pyrazol-5-yl)urea], the 50% inhibitory concentration (IC50) came out at 1.59 µM against GSK3α and 0.0059 µM with PBMCs (setting [1]).

As to `COc1cc(Nc2nccc(Oc3ccc(NC(=O)Nc4cc(C(C)C)nn4-c4cccc(CP(C)(C)=O)c4)c4ncccc34)n2)cc(OCCN2CCOCC2)c1` [Example 54, 1-(1-(3-((Dimethylphosphoryl)methyl)phenyl)-3-isopropyl-1H-pyrazol-5-yl)-3-(5-((2-((3-methoxy-5-(2-morpholinoethoxy)phenyl)amino)pyrimidin-4-yl)oxy)quinolin-8-yl)urea], the figures for the IC50 against GSK3α and with PBMCs (setting [1]) were above 10 µM and 0.0274 µM, respectively.

The values above are taken from patent US9796742B2, “Kinase inhibitors” (Respivert Limited, priority 2012, dated 2017).
